Measured values as given in ChEMBL document CHEMBL1743341, “Cytochrome p450 enzymes mechanism based inhibitors: common sub-structures and reactivity” (Curr Drug Metab, 2005).
Entries after “also recorded” stand apart in the source; their conditions may differ.

Experiments:
Cytochrome P450 2C11 = target: T1, Cytochrome P450 2C11 (Rattus norvegicus, UniProt P08683); assay: Mechanism based inhibition of rat cytochrome P450 CYP2C11 measured by 2-alpha and 16-alpha hydroxylation of testosterone; assay type: ADME
T1 sequence (P08683 whole entry): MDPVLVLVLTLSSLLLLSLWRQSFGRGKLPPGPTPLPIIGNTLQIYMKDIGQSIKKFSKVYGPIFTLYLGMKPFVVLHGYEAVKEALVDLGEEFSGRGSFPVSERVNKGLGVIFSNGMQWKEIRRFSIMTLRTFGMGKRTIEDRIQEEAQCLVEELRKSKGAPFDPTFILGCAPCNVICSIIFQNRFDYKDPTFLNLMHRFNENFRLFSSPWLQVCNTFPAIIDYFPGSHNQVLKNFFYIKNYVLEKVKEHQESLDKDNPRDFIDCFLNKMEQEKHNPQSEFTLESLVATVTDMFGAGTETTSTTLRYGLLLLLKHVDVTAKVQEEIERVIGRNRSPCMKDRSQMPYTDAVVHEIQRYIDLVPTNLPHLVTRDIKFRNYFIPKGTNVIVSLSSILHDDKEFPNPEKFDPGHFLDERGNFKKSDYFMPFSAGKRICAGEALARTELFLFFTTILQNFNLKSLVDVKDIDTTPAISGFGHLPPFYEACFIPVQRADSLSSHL

Cytochrome P450 3A4 [1] = target: T2, Cytochrome P450 3A4 (Homo sapiens, UniProt P08684); assay: Mechanism based inhibition of human cytochrome P450 3A4 measured by nifedipine oxidation, omeprazole 3-hydroxylation and omeprazole sulfoxydation; assay type: ADME
Cytochrome P450 3A4 [2] = target: T2, Cytochrome P450 3A4; assay: Mechanism based inhibition of human cytochrome P450 3A4 measured by testosterone 6-beta hydroxylation; assay type: ADME
Cytochrome P450 2C9 = Cytochrome P450 2C9 (Homo sapiens, UniProt P11712); assay: Mechanism based inhibition of human cytochrome P450 2C9 measured by diclofenac 4-hydroxylation; assay type: ADME
Cytochrome P450 2D6 = Cytochrome P450 2D6 (Homo sapiens, UniProt P10635); assay: Mechanism based inhibition of human cytochrome P450 2D6 measured by […] 1'-hydroxylation; assay type: ADME
Cytochrome P450 2C8 = target: T3, Cytochrome P450 2C8 (Homo sapiens, UniProt P10632)
T3 sequence (P10632 whole entry): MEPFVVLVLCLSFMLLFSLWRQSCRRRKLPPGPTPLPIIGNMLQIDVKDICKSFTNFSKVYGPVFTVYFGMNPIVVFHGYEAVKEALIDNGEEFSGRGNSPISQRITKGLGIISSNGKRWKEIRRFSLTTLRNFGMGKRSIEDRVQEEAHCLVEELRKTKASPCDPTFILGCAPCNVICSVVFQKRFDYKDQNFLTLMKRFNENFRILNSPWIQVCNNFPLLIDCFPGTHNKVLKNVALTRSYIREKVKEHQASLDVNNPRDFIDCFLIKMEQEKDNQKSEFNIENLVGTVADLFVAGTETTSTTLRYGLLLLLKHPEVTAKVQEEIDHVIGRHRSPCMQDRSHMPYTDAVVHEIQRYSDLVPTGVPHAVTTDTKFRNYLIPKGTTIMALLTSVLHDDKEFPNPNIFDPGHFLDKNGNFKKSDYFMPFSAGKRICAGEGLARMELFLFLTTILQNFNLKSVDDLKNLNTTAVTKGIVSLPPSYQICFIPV
Description: (§3) Mechanism based inhibition of human cytochrome P450 2C8 measured by paclitaxel hydroxylation using a recombinant system

CYP2C8 = target: T4, CYP2C8 (Homo sapiens, UniProt P10632); assay: in vitro; details: recombinant CYP2C8, probe paclitaxel
T4 sequence (P10632 whole entry): T3 sequence (P10632 whole entry)
Description: as §3

CYP2B6 = target: T5, CYP2B6 (Homo sapiens, UniProt P20813); assay: (§1) Mechanism based inhibition of human cytochrome P450 2B6; assay type: ADME; details: human
T5 sequence (P20813 whole entry): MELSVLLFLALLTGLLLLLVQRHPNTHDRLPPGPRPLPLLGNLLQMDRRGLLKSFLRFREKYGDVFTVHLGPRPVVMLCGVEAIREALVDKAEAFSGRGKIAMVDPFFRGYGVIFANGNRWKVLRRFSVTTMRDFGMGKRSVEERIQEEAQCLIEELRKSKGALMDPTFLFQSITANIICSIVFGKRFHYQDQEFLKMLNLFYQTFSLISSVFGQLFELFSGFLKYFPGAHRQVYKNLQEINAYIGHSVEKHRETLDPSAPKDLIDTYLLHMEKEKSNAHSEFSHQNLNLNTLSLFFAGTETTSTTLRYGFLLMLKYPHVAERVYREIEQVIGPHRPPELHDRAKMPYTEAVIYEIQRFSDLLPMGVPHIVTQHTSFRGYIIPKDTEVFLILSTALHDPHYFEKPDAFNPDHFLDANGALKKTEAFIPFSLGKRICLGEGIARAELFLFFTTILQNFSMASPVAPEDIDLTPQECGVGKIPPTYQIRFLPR

Cytochrome P450 2B6 = target: T6, Cytochrome P450 2B6 (Homo sapiens, UniProt P20813); assay: as §1; assay type: ADME
T6 sequence (P20813 whole entry): T5 sequence (P20813 whole entry)

Cytochrome P450 2B1 [3] = target: T7, Cytochrome P450 2B1 (Rattus norvegicus, UniProt P00176); assay: (§2) Mechanism based inhibition of rat cytochrome P450 CYP2B1 measured by 7-EFC O-deethylation activity; assay type: ADME
T7 sequence (P00176 whole entry): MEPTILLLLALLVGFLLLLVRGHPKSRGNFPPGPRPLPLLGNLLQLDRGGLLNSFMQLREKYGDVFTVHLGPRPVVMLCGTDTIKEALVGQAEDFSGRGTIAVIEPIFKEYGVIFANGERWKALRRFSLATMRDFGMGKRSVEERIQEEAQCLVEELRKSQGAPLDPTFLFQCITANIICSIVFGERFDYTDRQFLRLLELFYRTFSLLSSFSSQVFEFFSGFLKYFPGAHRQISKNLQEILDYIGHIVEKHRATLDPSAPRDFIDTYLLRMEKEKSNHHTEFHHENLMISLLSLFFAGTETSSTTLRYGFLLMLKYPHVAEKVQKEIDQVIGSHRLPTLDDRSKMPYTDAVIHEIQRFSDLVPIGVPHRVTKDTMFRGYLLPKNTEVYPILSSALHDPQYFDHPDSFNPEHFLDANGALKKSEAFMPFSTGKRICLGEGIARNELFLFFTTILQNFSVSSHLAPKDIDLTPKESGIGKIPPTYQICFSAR

Cytochrome P450 2B1 [4] = target: T7, Cytochrome P450 2B1; assay: Mechanism based inhibition of rat cytochrome P450 CYP2B1; assay type: ADME; details: rat
CYP2B1 = target: T8, CYP2B1 (Rattus norvegicus, UniProt P00176); assay: as §2; assay type: ADME; details: rat, probe 7-EFC (O-deethylation)
T8 sequence (P00176 whole entry): T7 sequence (P00176 whole entry)

Cytochrome P450 1A2 = target: T9, Cytochrome P450 1A2 (Homo sapiens, UniProt P05177); assay: Mechanism based inhibition of human cytochrome P450 1A2 measured by 7-ethoxyresorufin O-deethylation (EROD)
T9 sequence (P05177 whole entry): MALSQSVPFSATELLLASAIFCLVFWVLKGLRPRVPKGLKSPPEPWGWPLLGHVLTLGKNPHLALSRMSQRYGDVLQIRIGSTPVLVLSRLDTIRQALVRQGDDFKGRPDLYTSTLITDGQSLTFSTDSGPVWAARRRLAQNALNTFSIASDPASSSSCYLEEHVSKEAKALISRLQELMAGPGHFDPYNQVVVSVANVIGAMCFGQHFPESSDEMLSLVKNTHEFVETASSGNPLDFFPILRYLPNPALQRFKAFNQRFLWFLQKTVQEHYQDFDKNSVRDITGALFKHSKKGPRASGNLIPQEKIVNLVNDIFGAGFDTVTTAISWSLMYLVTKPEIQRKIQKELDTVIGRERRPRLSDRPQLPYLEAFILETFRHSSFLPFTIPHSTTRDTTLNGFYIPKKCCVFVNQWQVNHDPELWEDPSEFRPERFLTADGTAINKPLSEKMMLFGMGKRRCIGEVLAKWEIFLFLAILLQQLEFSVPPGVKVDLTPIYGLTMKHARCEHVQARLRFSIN

T2 sequence (P08684 whole entry): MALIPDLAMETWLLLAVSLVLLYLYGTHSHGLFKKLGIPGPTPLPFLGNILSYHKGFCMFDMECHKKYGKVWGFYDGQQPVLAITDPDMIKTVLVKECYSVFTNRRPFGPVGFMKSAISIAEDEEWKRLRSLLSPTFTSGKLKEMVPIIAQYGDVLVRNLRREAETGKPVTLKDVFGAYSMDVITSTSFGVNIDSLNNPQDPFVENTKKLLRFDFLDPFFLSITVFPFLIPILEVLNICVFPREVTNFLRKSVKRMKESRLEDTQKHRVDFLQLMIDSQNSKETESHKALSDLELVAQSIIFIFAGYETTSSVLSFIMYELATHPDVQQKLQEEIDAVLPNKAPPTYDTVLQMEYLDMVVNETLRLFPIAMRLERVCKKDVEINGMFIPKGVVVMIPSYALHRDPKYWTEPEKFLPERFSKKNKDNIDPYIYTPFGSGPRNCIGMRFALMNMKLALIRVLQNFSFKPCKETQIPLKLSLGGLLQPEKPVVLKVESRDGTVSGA
Sequence of Cytochrome P450 2D6 (P10635 whole entry): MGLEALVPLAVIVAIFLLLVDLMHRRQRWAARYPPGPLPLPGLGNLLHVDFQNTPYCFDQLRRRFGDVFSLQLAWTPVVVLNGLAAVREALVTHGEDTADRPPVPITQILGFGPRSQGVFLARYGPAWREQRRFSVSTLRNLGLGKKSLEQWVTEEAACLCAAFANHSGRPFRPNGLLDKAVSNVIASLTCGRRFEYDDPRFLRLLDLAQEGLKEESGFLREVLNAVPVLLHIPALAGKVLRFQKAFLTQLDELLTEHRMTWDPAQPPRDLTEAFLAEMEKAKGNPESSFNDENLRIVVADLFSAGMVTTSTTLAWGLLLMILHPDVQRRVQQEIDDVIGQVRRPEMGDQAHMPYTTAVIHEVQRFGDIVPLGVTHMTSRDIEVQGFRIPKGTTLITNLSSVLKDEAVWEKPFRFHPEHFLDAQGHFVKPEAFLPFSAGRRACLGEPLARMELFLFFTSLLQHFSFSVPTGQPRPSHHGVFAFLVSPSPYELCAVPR
Sequence of Cytochrome P450 2C9 (P11712 whole entry): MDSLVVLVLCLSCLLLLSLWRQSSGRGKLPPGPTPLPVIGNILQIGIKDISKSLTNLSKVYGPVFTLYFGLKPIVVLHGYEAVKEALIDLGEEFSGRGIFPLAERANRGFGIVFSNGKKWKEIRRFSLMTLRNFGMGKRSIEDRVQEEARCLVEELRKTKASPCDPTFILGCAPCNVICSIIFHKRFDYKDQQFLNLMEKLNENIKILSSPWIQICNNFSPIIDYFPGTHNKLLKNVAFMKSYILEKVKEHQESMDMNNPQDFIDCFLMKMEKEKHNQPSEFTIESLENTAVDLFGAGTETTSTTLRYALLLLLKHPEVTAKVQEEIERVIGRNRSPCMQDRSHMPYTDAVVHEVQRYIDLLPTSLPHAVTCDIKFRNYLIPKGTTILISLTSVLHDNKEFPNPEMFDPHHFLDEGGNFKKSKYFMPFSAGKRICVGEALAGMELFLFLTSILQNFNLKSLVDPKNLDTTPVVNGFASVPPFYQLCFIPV

`CNCCCN1c2ccccc2CCc2ccccc21` [DESIPRAMINE] was tested, and the mechanism based inhibition (Cytochrome P450 2C11) was “Cytochrome P450 mechanistic inhibitor: PMID 14555335”.

In the case of `C/C(=C\COc1c2ccoc2cc2oc(=O)ccc12)CCC(OC(C)(C)C(O)CC/C(C)=C/COc1c2ccoc2cc2oc(=O)ccc12)C(C)(C)O` (configuration not stated) [FC726], the Ki (Cytochrome P450 3A4 [1]) is reported as 130 nM and the mechanism based inhibition (Cytochrome P450 3A4 [2]) is reported as “Cytochrome P450 mechanistic inhibitor: PMID 10859150”.

With `CNCCC(Oc1ccc(C(F)(F)F)cc1)c1ccccc1` (configuration not stated) [FLUOXETINE] the mechanism based inhibition (Cytochrome P450 2C11) was “Cytochrome P450 mechanistic inhibitor: PMID 14555335”.

For `COc1ccc2c(c1OC)C(=O)O[C@@H]2[C@H]1c2cc3c(cc2CCN1C)OCO3` [HYDRASTINE], the mechanism based inhibition (Cytochrome P450 2C9) was “Cytochrome P450 mechanistic inhibitor: PMID 14570772” and the mechanism based inhibition (Cytochrome P450 2D6) was “Cytochrome P450 mechanistic inhibitor: PMID 14570772”.

`CNCCC(Oc1ccccc1OC)c1ccccc1` (configuration not stated) [NISOXETINE] was tested, and the mechanism based inhibition (Cytochrome P450 2C11) was “Cytochrome P450 mechanistic inhibitor: PMID 14555335”.

For `CNCCC=C1c2ccccc2CCc2ccccc21` [NORTRIPTYLINE], the mechanism based inhibition (Cytochrome P450 2C11) was “Cytochrome P450 mechanistic inhibitor: PMID 1435757; also recorded: Cytochrome P450 mechanistic inhibitor: PMID 14555335”, the Ki (Cytochrome P450 2C8) was 49.9 µM and the kinact (CYP2C8) was 0.0006 s⁻¹.

`c1ccc(C2(N3CCCCC3)CCCCC2)cc1` [PHENCYCLIDINE] was tested, and the kinact (CYP2B6) was 0.000167 s⁻¹, the Ki (Cytochrome P450 2B6) was 10 µM and the mechanism based inhibition (Cytochrome P450 2B1 [3]; rat) was “Cytochrome P450 mechanistic inhibitor: PMID 9029055”.

For `C=CCC1(C(C)CCC)C(=O)NC(=O)NC1=O` (configuration not stated) [SECOBARBITAL], the mechanism based inhibition (Cytochrome P450 2B1 [4]) was “Cytochrome P450 mechanistic inhibitor: PMID 8728507”.

`C#CCN(C)[C@H](C)Cc1ccccc1` [SELEGILINE] showed a kinact (CYP2B1) of 0.00383 s⁻¹ and a Ki (Cytochrome P450 2B1 [3]) of 1050 nM.

`Nc1c2c(nc3ccccc13)CCCC2` [TACRINE] showed a Ki (Cytochrome P450 1A2) of 1940 nM.
